# Experimental data: patent US7579378B2, “Sulfonamido compounds that antagonize the vanilloid TRPV1 receptor” (Pharmeste S.R.L., priority 2004, dated 2009)
# Assays:
# [1] = target: T1, TRPV1 expressing rat trigeminal neurons (Rattus norvegicus, UniProt O35433); test: Ca2+ fluorescence measurements in cultured rat trigeminal ganglia neurons (capsaicin-induced calcium mobilisation); format: cell-based; settings: for IC50: against capsaicin (0.1 μM)-induced calcium mobilisation, 10 minutes incubation prior to capsaicin, mean and 95% fiducial limits
# T1 construct: The ganglia were then dissociated into single cells; endogenous in cells; host or cells: primary cultured trigeminal ganglia neurons from newborn rats
# Method: Newborn rats (2 days old) were terminally anaesthetized and decapitated. The trigeminal ganglia were removed and rapidly placed in cold phosphate buffered solution (PBS) before being transferred to collagenase/dispase (1 mg/ml dissolved in Ca^2+—Mg^2+-free PBS) for 35 min at 37° C. (Rigoni et al, 2003). After the enzymatic treatment ganglia were rinsed three times with Ca^2+—Mg^2+-free PBS and then placed in 2 ml of cold DMEM supplemented with 10% foetal bovine serum (FBS, heat inactivated), 2 mM L-glutamine, 100 u/ml penicillin and […] streptomycin. The ganglia were then dissociated into single cells by several passages through a series of syringe needles (23 G down to 25 G). Finally, the complex of medium and ganglia cells were sieved through a […] filter to remove debris and topped up with 8 ml of DMEM medium and centrifuged (200×g for 5 min). The final cell pellet was re-suspended in DMEM medium (supplemented with 100 ng/ml mouse Nerve Growth Factor (mouse-NGF-7S) and cytosine-b-D-arabino-furanoside free base (ARA-C) 2.5 mM). Cells were plated on poly-L-lysine (8.3 mM) and laminin (5 mM) coated 25 mm glass cover slips and kept for 2 to 5 days at 37° C. in a humidified incubator gassed with 5% CO2 and air. Plated neurons were loaded with Fura-2-AM-ester (3 μM) in Ca^2+ buffer solution of the following composition (mM): CaCl2 1.4, KCl 5.4, MgSO4 0.4, NaCl 135, D-glucose 5, HEPES 10 with BSA 0.1%, at pH 7.4, for 40 min at 37° C., washed twice with the Ca^2+ buffer solution and transferred to a chamber on the stage of Nikon eclipse TE300 microscope. The dye was excited at 340 and 380 nm to indicate relative [Ca^2+]i changes by the F340/F380 ratio recorded with a dynamic image analysis system (Laboratory Automation 2.0, RCS, Florence, Italy). Capsaicin (0.1 μM) and ionomycin (5 μM) were added to the chamber. A calibration curve using a buffer containing Fura-2-AM-ester and determinant concentrations of free Ca^2+ (Kudo et al., 1986) was used to convert the data obtained from F340/F380 ratio to [Ca^2+]i (nM).
# The effects of all compounds were tested against capsaicin-induced calcium mobilisation. Antagonistic compounds were incubated for 10 minutes prior to the capsaicin challenge. The inhibitory effect of the TRPV1 antagonist, capsazepine, was also tested.
# [2] = tested on: capsaicin-induced wiping behaviour; test: Wiping test in rats (capsaicin-induced wiping); format: in vivo, rat
# Method: The irritant effect (induction of wiping movements) of capsaicin was assessed by applying capsaicin 3 μg/eye (10 μl) on the rat conjunctiva and the number of wiping movements was recorded during the 60 sec period that followed the application. In other set of experiments, rats were treated intraperitoneally with diverse doses of 14 and capsaicin-induced wiping was studied.
# [3] = target: T2, TRPV1 receptor expressed in rat spinal cord (Rattus norvegicus, UniProt O35433); test: [3H]-RTX competition binding assay; settings: for Ki: [3H]-RTX (0.4 nM) competition, rat spinal cord membranes, mean and 95% fiducial limits; for affinity for the TRPV1 receptor: in vitro, summary statement
# T2 construct: spinal cord was removed and disrupted using a Polytron tissue homogenizer; from tissue; host or cells: rat spinal cord membranes (Sprague-Dawley)
# Method: Male Sprague-Dawley rats with body weight between 250 to 350 g at the time for testing were used. For binding assays rats were sacrificed by decapitation under anesthesia and spinal cord was removed and disrupted using a Polytron tissue homogenizer in ice cold buffer containing 5 mM KCl, 5.8 mM NaCl, 0.75 mM CaCl2, 2 mM MgCl2, 320 mM sucrose, 10 mM Hepes, pH 8.6 (Szallasi and Blunberg, 1992; 1993). Tissue homogenized was centrifuged at 1000×g for 10 min at 4° C. and the sumatant was centrifuged again at 35000×g for 30 min at 4° C. (Beckman Avanti J25). The pellet was resuspended in the same buffer as described above and used in binding experiments. In saturation experiments, 150 μg protein/sample from membrane suspensions were incubated with ([^3H]-Resiniferatoxin, Perkin Elmer, Boston, Mass.) [^3H]-RTX (0.003-3 nM) in the assay buffer containing 0.25 mg/ml fatty acid-free bovine serum albumin at 37° C. for 60 min. In competition experiments, the membranes were incubated at 37° C. for 60 min with [^3H]RTX (0.4 nM) and increasing concentrations of examined compounds in the range from 0.1 nM to 3 μM. Non specific binding was defined in the presence of 1 μM RTX. After incubation the reaction mixture was cooled at 0° C. and incubated with bovine α1-acid glycoprotein (200 μg per tube) for 15 min to reduce non-specific RTX binding. Membrane-bound RTX was separated from the free through the centrifugation of the samples at 18500×g for 15 min. The tip of the microcentrifuge tube containing the pellet was cut off and the radioactivity was determined by scintillation counting (Packard 2500 TR). The protein concentration was determined according to a Bio-Rad method with bovine serum albumin as a standard reference (Bradford, 1976). Saturation and competition studies were analyzed with the program Ligand (Munson and Rodbard, 1980).
# T2 sequence (O35433 whole entry): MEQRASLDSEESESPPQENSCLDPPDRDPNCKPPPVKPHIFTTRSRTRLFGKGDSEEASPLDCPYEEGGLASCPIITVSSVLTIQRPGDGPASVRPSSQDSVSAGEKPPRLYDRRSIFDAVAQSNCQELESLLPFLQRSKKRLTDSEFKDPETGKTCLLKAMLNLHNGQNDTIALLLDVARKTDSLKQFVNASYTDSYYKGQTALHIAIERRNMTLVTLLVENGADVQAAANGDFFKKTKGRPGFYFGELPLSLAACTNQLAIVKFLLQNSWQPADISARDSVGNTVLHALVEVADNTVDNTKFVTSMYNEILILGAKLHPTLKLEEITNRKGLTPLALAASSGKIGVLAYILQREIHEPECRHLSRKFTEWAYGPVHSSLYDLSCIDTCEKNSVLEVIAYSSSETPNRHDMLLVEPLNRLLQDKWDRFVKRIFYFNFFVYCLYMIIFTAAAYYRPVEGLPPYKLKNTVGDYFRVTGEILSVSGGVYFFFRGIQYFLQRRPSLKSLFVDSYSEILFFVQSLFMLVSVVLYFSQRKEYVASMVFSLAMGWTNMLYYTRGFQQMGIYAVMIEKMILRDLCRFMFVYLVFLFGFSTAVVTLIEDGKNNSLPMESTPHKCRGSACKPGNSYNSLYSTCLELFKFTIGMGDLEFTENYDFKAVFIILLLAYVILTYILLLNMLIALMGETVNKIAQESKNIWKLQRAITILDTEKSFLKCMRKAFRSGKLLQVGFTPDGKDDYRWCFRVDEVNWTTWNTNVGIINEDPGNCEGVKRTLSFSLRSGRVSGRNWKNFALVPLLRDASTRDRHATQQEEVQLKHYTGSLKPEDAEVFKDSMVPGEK
# T1 sequence (O35433 whole entry): as above
melting point [°C],SMILES,IC50 [1] [nM],Ki [3] [nM],affinity for the TRPV1 receptor [3],other results
–,"COc1cc(CNC(=O)CCCC/C=C/C(C)C)ccc1O [Capsaicin, capsaicin, reference compound]",–,–,–,rat trigeminal neuronal cells showing an increase in [Ca2+]i ([1]; capsaicin 0.1 μM): 87%
–,"Oc1cc2c(cc1O)CN(C(=S)NCCc1ccc(Cl)cc1)CCC2 [Capsazepine, capsazepine, reference compound]",2170,–,–,–
–,"COc1cc(CNS(=O)(=O)c2ccc(NC(=S)NCc3ccc(C(C)(C)C)cc3)cc2)c(I)cc1O [Compound 14, N-(4-t-butyl-benzyl)-N′-[4-(2-iodo-4-hydroxy-5-methoxy-benzyl)aminosulfonyl]phenyl thiourea]",60,90,"significantly greater than that of the classic TRPV1 receptor antagonist, capsazepine","inhibition of capsaicin-induced wiping behaviour ([2]; 1 mg/kg intraperitoneal, 60 minutes prior to the capsaicin challenge (3 μg/eye)): 24%; effect on capsaicin-induced wiping behaviour ([2]; intraperitoneal, 60 minutes prior to the capsaicin challenge, diverse doses): dose dependent reduction"
122,"COc1cc(CNS(=O)(=O)c2ccc(NC(=S)NCc3ccc(C(F)(F)F)cc3)cc2)c(Cl)cc1O [Compound 19, N-(4-trifluoromethyl-benzyl)-N′-[4-(2-chloro-4-hydroxy-5-methoxy-benzyl)aminosulfonyl]phenyl thiourea]",270,756,high affinity,–
–,"COc1cc(CNS(=O)(=O)c2ccc(NC(=S)NCc3ccc(C(C)(C)C)cc3)cc2)c(Br)cc1O [Compound 20, N-(4-t-butyl-benzyl)-N′-[4-(2-bromo-4-hydroxy-5-methoxy-benzyl)aminosulfonyl]phenyl thiourea]",212,493,high affinity,–
195,"COc1cc(CNS(=O)(=O)c2ccc(CCNC(=S)NCc3ccc(C(C)(C)C)cc3)cc2)c(I)cc1O [Compound 32, N-(4-t-butyl-benzyl)-N′-[4-(2-iodo-4-hydroxy-5-methoxy-benzyl)aminosulfonyl-2-phenylethyl]thiourea]",–,–,–,–
186,"COc1cc(CNS(=O)(=O)c2ccc(CCNC(=S)NCc3ccc(C(F)(F)F)cc3)cc2)c(I)cc1O [Compound 33, N-(4-trifluoromethyl-benzyl)-N′-[4-(2-iodo-4-hydroxy-5-methoxy-benzyl)aminosulfonyl-2-phenylethyl]thiourea]",–,–,–,–
